Reference: article PMC5520057, “Modulation of nongenomic activation of PI3K signalling by tetramerization of N-terminally-cleaved RXRα” (Nature Communications, 2017)

Legend:
RXRα-LBD = target: T1, RXRα-LBD (Homo sapiens, UniProt P19793); test: Isothermal titration calorimetry (ITC), RXRα-LBD; type: binding; settings: 25 °C, protein 50 μM in 25 mM Tris-HCl, pH 7.5, 150 mM NaCl, 0.1% DMSO, compound 1 mM
T1 construct: The human RXRα LBD (residues Thr223 to Thr462); made in house; host or cells: Escherichia coli BL21
T1 sequence (P19793 223-462): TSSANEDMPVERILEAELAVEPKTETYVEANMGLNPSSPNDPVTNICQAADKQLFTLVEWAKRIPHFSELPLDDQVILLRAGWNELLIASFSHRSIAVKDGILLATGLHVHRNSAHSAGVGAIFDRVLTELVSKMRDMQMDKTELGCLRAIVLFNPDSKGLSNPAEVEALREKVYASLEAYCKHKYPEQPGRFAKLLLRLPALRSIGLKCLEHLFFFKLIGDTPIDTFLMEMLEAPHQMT
Method: The human RXRα LBD (residues Thr223 to Thr462) cloned as an N-terminal histidine-tagged fusion protein in pET15b expression vector was expressed in Escherichia coli BL21 strain (Stratagene). After sonication, cell extract was incubated with the His60 Ni Superflow resin, and His-tagged RXRα-LBD-resin complexes were washed, eluted and concentrated to 5 mg ml^−1 for subsequent trails. For crystallization experiment, bovine thrombin (Sigma) was used to cleave the His tag from the purified His-tagged RXRα-LBD. The resulting His tag was removed on the Resource-Q column (GE) using 0.1–1 M NaCl gradient and the Tris-Cl pH 8 buffer. RXRα-LDB was further purified using gel filtration on a Superdex 200 2660 column (GE) pre-equilibrated with the 75 mM NaCl, 20 mM Tris-Cl buffer (pH 8).
Binding of compounds to RXRα-LBD or mutant was studied in […] at 25 °C using isothermal titration calorimetry (ITC) assay that measures the heat either released or absorbed during binding. The purified His-tagged RXRα-LBD or mutant protein (50 μM in 25 mM Tris-HCl, pH 7.5, 150 mM NaCl, 0.1% DMSO) was placed in the sample cell of MicroCal VP-ITC titration calorimeter. The compounds to be studied were diluted to a concentration of 1 mM in the same buffer. All solutions were degassed before the titrations. […] Calorimetric data were analysed using MicroCal Origin software (version 7.0).

[1] = tested on: p85α / tRXRα/R316E interaction; test: coIP, p85α with tRXRα/R316E; type: cell-based; settings: HEK293T cells; K-80003 (5 × 10^−6 M) for 6 h; coIP anti-HA
Method: (§3) For coIP assay[29], HEK293T cells grown in 10 cm dishes were transfected with various plasmids. Cells were lysed in 1 ml of lysis buffer (20 mM Tris (pH 7.5), 150 mM NaCl, 1% Triton X-100, 1 mM EDTA, 30 mM NaF, 2 mM sodium pyrophosphate) with a cocktail of proteinase inhibitors (Roche). Lysates were incubated with the appropriate antibody for 12 h at 4 °C and subsequently incubated with protein A-Sepharose beads for 1 h. The immunoprecipitates were collected and washed three times with lysis buffer. The protein–antibody complexes recovered on beads were subjected to immunoblotting using appropriate antibodies after separation by SDS-PAGE. Input represents 5% of cell lysates used for coIP assays.

p85α / tRXRα interaction = test: coIP, p85α with tRXRα; type: cell-based; settings: conclusion from structure and crosslinking
Method: as §3

[2] = tested on: p85α / tRXRα/F313A interaction; test: coIP, p85α with tRXRα/F313A; type: cell-based; settings: HEK293T cells; K-80003 (5 × 10^−6 M) for 6 h; coIP anti-HA
Method: as §3

tRXRα/L433D = test: Subcellular localization of tRXRα/L433D, immunostaining; type: cell-based; settings: MCF-7 cells; K-80003 (5 × 10^−6 M) for 3 h, then TNFα (10 ng ml^−1) for 30 min
Method: (§1) Cells mounted on glass slides or tumour tissue frozen sections (5-μm-thick) were washed with PBS and fixed in 4% paraformaldehyde (PFA) for 15 min and permeabilized with PBS containing 0.1% Triton X-100 for 15 min. Fixed cells or tumour tissues were blocked with 5 mg ml^−1 BSA in PBS for 30 min at room temperature, followed with incubation with primary antibodies for 3 h and secondary antibodies at room temperature for 1 h and co-stained with 4′6′-diamidino-2-phenylindole (DAPI) to visualize nuclei. The images were taken under an LSM-510 confocal laser scanning microscope system (Carl Zeiss).

tRXRα = test: MCF-7/tRXRα xenograft tumours, immunostaining; type: in vivo; settings: nude mice; K-80003 20 mg kg^−1 i.p., 12 days; anti-Myc
Method: as §1
(§2) For nude mice xenograft study, Myc-RXRα and Myc-tRXRα cloned into pcdna3.0 vector were stably transfected into MCF-7 cells, and the resulting stable clones and control clone (2 × 10^6 cells in 100 μl) were injected subcutaneously into nude mice (BALB/c, SPF grade, 16–18 g, 4–5-week old). For drug treatment, mice were intraperitoneally injected (i.p.) daily with K-80003 (20 mg kg^−1) diluted in Tween-80 or vehicle (tween-80). Body weight and tumour size were measured every 2 days. Mice were killed after 12-day drug treatment and the tumours removed for various assessments. […]

MCF-7 xenograft tumours = test: MCF-7/tRXRα xenograft tumours, western blotting; type: in vivo, nude mice; settings: MCF-7/tRXRα tumour; K-80003 20 mg kg^−1 i.p., 12 days
Method: Proteins or cell lysates were electrophoresed by SDS-PAGE gel and transferred to polyvinylidene difluoride (PVDF) membrane. The membranes were blocked with 5% skimmed milk in TBST (50 mM Tris-HCl (pH 7.4), 150 mM NaCl and 0.1% Tween20) for 1 h, then incubated with primary antibodies and secondary antibodies and detected using ECL system (Thermo). The dilutions of the primary antibodies were anti-RXRα (ΔN197, Santa Cruz) in 1:1,000, anti-PARP (H-250, Santa Cruz) in 1:3,000, anti-p85α (Millipore) in 1:1,000, anti-p-AKT (D9E, Cell Signaling Technology) in 1:1000, anti-AKT1/2/3 (H-136, Santa Cruz) in 1:1,000, anti-β-actin (Sigma) in 1:5,000, anti-c-myc (9E10, Santa Cruz) in 1:3,000, anti-HA (F-7, Santa Cruz) in 1:3,000, anti-Flag (F1804, Sigma) in 1:3,000. Images of all uncropped western blots can be found in Supplementary Figs 10–14.
as §2, with “days.” for “days. Mice were killed after 12-day drug treatment and the tumours removed for various assessments.”

PI3K signalling = tested on: PI3K signalling; design: method as in PMID 20541701; settings: cited from earlier work

SMILES: CC1=C(CC(=O)O)c2cc(F)ccc2/C1=C\c1ccc(C(C)C)cc1 [K-80003]
- N (stoichiometry) (RXRα-LBD): 1.52
- modulation of tRXRα/R316E interaction with p85α [1]: failed to modulate the interaction of both mutants with p85α
- inhibition of tRXRα interaction with p85α (p85α / tRXRα interaction): inhibits tRXRα interaction with p85α by promoting tRXRα tetramerization
- modulation of tRXRα/F313A interaction with p85α [2]: failed to modulate the interaction of both mutants with p85α
- effect on cytoplasmic colocalization of p85α with tRXRα/L433D (tRXRα/L433D): not affected by K-80003
- subcellular localization of tRXRα in xenograft tumours (tRXRα): a significant amount of tRXRα was found in the nucleus
- AKT activation in tumours (MCF-7 xenograft tumours): reduced AKT activation
- PARP cleavage in tumours (MCF-7 xenograft tumours): enhanced PARP cleavage
- inhibition of activation of PI3K signalling (PI3K signalling): inhibits its interaction with p85α and activation of PI3K signalling
